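The compound was tested at five concentrations on cells cultured in 96-well plates, with a 48-hour exposure period. The concentration for 50% growth inhibition is given as GI50.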 The source made the active and inactive calls. No stated cut-off is given here; in the data, active = GI50 up to about 1.1 µM and inactive = higher.

Among the test systems are SR; RXF 393; NCI/ADR-RES; DU-145; SNB-19; 786-0; K562; SF-295; NCI-H226; Malme-3M; A549; PC-3; HL-60; RPMI-8226; MCF7; UO-31; UACC-62; BT-549; Hs-578T; MDA-MB-231.
Assay in all cases: NCI anticancer screen, dose series, 48 h

`Cc1nn(-c2ccccc2)c(C)c1/C=N/NC(=O)c1sc(=S)n(-c2ccc(Cl)cc2)c1N`: the GI50 in the test on SR is 3.73 µM (inactive); in the test with RXF 393, 2.15 µM (inactive); in the test with NCI/ADR-RES, 6.21 µM (inactive); in the test with DU-145, > 100 µM (inactive); in the test on SNB-19, > 100 µM (inactive); in the test on 786-0, 3.89 µM (inactive). Also, the GI50 in the test with K562 was 3.52 µM (inactive); in the test on SF-295, 2.71 µM (inactive); in the test with NCI-H226, 34.5 µM (inactive); in the test on Malme-3M, 17.5 µM (inactive); in the test with A549, 6.28 µM (inactive); in the test on PC-3, 4.07 µM (inactive). Moreover, the GI50 with HL-60 was 8.17 µM (inactive); in the test on RPMI-8226, 2.67 µM (inactive); in the test on MCF7, 18 µM (inactive); with UO-31, 4.33 µM (inactive); with UACC-62 it was 5.98 µM (inactive); in the test on BT-549 it was 21.2 µM (inactive). The GI50 with Hs-578T was 2.4 µM (inactive); with MDA-MB-231, 5.02 µM (inactive).

Take `CC(=O)Nc1ccc(-c2nc3cc(Cl)ccc3o2)cc1`: the GI50 with SR, in the test on RXF 393, with NCI/ADR-RES, in the test on DU-145, in the test with SNB-19 and with 786-0 was > 50 µM (inactive) throughout. In addition, the GI50 in the test with K562 is > 50 µM (inactive); with SF-295, > 50 µM (inactive); in the test on NCI-H226, 24.5 µM (inactive); in the test on Malme-3M, > 50 µM (inactive); with A549, > 50 µM (inactive); with PC-3, > 50 µM (inactive). For the same molecule, the GI50 in the test with HL-60 was 40.9 µM (inactive); in the test with RPMI-8226, > 50 µM (inactive); with MCF7, > 50 µM (inactive); with UO-31, > 50 µM (inactive); with UACC-62, > 50 µM (inactive); in the test on BT-549 it was > 50 µM (inactive). The GI50 in the test on Hs-578T and with MDA-MB-231 was > 50 µM (inactive) throughout.

As for `O=C(c1c2c(cc3c1CC1(Cc4cc5c(cc4C1)CCCC5)C3)CCCC2)C(Br)Br`, the GI50 with SR is 2.69 µM (inactive); in the test on RXF 393 it was 6.73 µM (inactive); with NCI/ADR-RES, 19.4 µM (inactive); in the test with DU-145 it was > 58.5 µM (inactive); with SNB-19, > 40.9 µM (inactive); with 786-0 it was 14.6 µM (inactive). For the same molecule, the GI50 in the test with K562 is 4.31 µM (inactive); with SF-295, 58.6 µM (inactive); with NCI-H226, 6.38 µM (inactive); in the test on Malme-3M it was 3.53 µM (inactive); in the test with A549 it was 43.8 µM (inactive); in the test with PC-3 it was 12.5 µM (inactive). The GI50 with HL-60 is 3.18 µM (inactive); in the test on RPMI-8226 it was 5.04 µM (inactive); in the test with MCF7 it was 7.67 µM (inactive); in the test on UO-31, 13.8 µM (inactive); with UACC-62, 14.9 µM (inactive); with BT-549, 5.48 µM (inactive). The results for the GI50 in the test with Hs-578T and with MDA-MB-231 were 30.8 µM (inactive) and 17.4 µM (inactive), respectively.

As to `CCN(CCCl)c1cc(CN(C)C)cc(NC(=O)c2ccc(C(=O)Nc3cc(CN(C)C)cc(N(CC)CCCl)c3)cc2)c1`, the GI50 with SR is 0.0228 µM (active); with RXF 393 it was 0.0278 µM (active); in the test with NCI/ADR-RES, 42 µM (inactive); in the test with DU-145, 0.504 µM (active); in the test with SNB-19 it was 0.0873 µM (active); in the test on 786-0, 0.069 µM (active). Further, the GI50 in the test on K562 is 0.0733 µM (active); in the test with SF-295, 0.182 µM (active); in the test with NCI-H226, 0.0697 µM (active); in the test with Malme-3M, 0.292 µM (active); with A549, 0.0955 µM (active); in the test on PC-3 it was 0.19 µM (active). The GI50 with HL-60 was < 0.01 µM (active); with RPMI-8226 it was 0.0885 µM (active); in the test on MCF7 it was 0.017 µM (active); in the test on UO-31, 5.21 µM (inactive); in the test on UACC-62 it was 0.0736 µM (active); with BT-549, 0.226 µM (active). For the same molecule, the GI50 in the test on Hs-578T is 0.103 µM (active); with MDA-MB-231, 0.323 µM (active).

In the case of `COC(=O)C1(Cc2ccc(C)cc2)Cc2c(C)cccc2C1=O` (stereo not given), the GI50 was 7.24 µM (inactive) in the test on SR; 9.71 µM (inactive) in the test with RXF 393; 14.9 µM (inactive) in the test on NCI/ADR-RES; 15.3 µM (inactive) with DU-145; 17.7 µM (inactive) in the test on SNB-19; 20.5 µM (inactive) in the test with 786-0. For the same molecule, the GI50 was 8.04 µM (inactive) in the test on K562; 15.4 µM (inactive) in the test on SF-295; 15.3 µM (inactive) with NCI-H226; 13 µM (inactive) in the test on Malme-3M; 18.2 µM (inactive) in the test with A549; 12.4 µM (inactive) in the test on PC-3. Moreover, the GI50 in the test with HL-60 was 5.6 µM (inactive); with RPMI-8226, 15.1 µM (inactive); with MCF7 it was 11.2 µM (inactive); in the test with UO-31, 24.7 µM (inactive); in the test with UACC-62, 20.8 µM (inactive); with BT-549, 16.3 µM (inactive). Also, the GI50 is 15.9 µM (inactive) with Hs-578T and 31.1 µM (inactive) with MDA-MB-231.

As for `CCCC(=O)OC[n+]1cccc(-c2c(COC(=O)NC(C)C)c(COC(=O)NC(C)C)c3n2CCC3)c1`, the GI50 is 5.75 µM (inactive) in the test on SR; 23.1 µM (inactive) with RXF 393; 61.8 µM (inactive) in the test on NCI/ADR-RES; 43.2 µM (inactive) in the test on DU-145; > 100 µM (inactive) in the test on SNB-19; 37.5 µM (inactive) in the test with 786-0. The GI50 in the test with K562 is 50.8 µM (inactive); with SF-295, 71.9 µM (inactive); in the test with NCI-H226, > 91 µM (inactive); in the test on Malme-3M it was 66.5 µM (inactive); in the test with A549 it was 89.5 µM (inactive); with PC-3, > 86.7 µM (inactive). For the same molecule, the GI50 is 15.7 µM (inactive) in the test on HL-60; 32.3 µM (inactive) in the test with RPMI-8226; 40 µM (inactive) in the test on MCF7; 38.7 µM (inactive) in the test on UO-31; 20.1 µM (inactive) in the test on UACC-62; > 79.6 µM (inactive) with BT-549. Also, the figures for the GI50 in the test on Hs-578T and with MDA-MB-231 were > 100 µM (inactive) and > 74.8 µM (inactive), respectively.

Take `O=C(C/C(=N/O)c1cc(-c2ccccc2)no1)c1ccccc1`: the GI50 was 13.6 µM (inactive) in the test with SR; 19.8 µM (inactive) with RXF 393; 25.8 µM (inactive) with NCI/ADR-RES; > 100 µM (inactive) in the test with DU-145; 26.5 µM (inactive) in the test on SNB-19; 22.1 µM (inactive) in the test with 786-0. For the same molecule, the GI50 is 41.3 µM (inactive) with K562; 33.7 µM (inactive) with SF-295; 20.8 µM (inactive) with NCI-H226; 41.4 µM (inactive) in the test on Malme-3M; 58.6 µM (inactive) with A549; 77.6 µM (inactive) in the test on PC-3. Further, the GI50 was 29 µM (inactive) in the test with HL-60; > 100 µM (inactive) in the test on RPMI-8226; 44.5 µM (inactive) with MCF7; 26.4 µM (inactive) in the test on UO-31; 31 µM (inactive) in the test with UACC-62; 28.7 µM (inactive) in the test with BT-549. The GI50 in the test with Hs-578T is 26.2 µM (inactive); in the test with MDA-MB-231, 21.4 µM (inactive).

Take `C[N+](C)(C)/N=C\c1ccc(O)c(O)c1`: the GI50 in the test with SR, in the test with RXF 393, in the test with NCI/ADR-RES, in the test with DU-145, in the test with SNB-19 and in the test with 786-0 was > 100 µM (inactive) in each case. Further, the GI50 in the test with K562, with SF-295, in the test with NCI-H226, with Malme-3M, in the test on A549 and with PC-3 was > 100 µM (inactive) throughout. For the same molecule, the GI50 with HL-60, with RPMI-8226, in the test on MCF7, in the test with UO-31, in the test on UACC-62 and with BT-549 was > 100 µM (inactive) in each case. The GI50 with Hs-578T and with MDA-MB-231 was > 100 µM (inactive) in each case.

As for `COc1cc(/C=N/N=C2NCCN2)ccc1O`, the GI50 in the test on SR, in the test with RXF 393, with NCI/ADR-RES, in the test with DU-145, in the test with SNB-19 and in the test with 786-0 was > 100 µM (inactive) in each case. Further, the GI50 in the test on K562 is > 100 µM (inactive); with SF-295, 68.5 µM (inactive); with NCI-H226 it was > 100 µM (inactive); with Malme-3M, > 100 µM (inactive); in the test with A549 it was > 100 µM (inactive); in the test on PC-3 it was > 100 µM (inactive). Further, the GI50 in the test on HL-60, in the test on RPMI-8226, with MCF7, in the test with UO-31, in the test with UACC-62 and with BT-549 was > 100 µM (inactive) in each case. For the same molecule, the GI50 in the test with Hs-578T and with MDA-MB-231 was > 100 µM (inactive) in each case.

Regarding `Nc1ccc(S(=O)(=O)c2ccc(/N=[N+](\[O-])c3ccc(S(=O)(=O)c4ccc(N)cc4)cc3)cc2)cc1`, the GI50 in the test on SR is > 61.4 µM (inactive); with RXF 393 it was 7.66 µM (inactive); in the test on NCI/ADR-RES, > 74.3 µM (inactive); in the test on DU-145 it was 81.7 µM (inactive); in the test on SNB-19 it was 44.4 µM (inactive); with 786-0, 18.5 µM (inactive). Moreover, the GI50 in the test with K562 was > 100 µM (inactive); in the test with SF-295, 22.1 µM (inactive); in the test on NCI-H226 it was 14.6 µM (inactive); in the test on Malme-3M, > 56.4 µM (inactive); in the test with A549, > 100 µM (inactive); in the test on PC-3, > 55.3 µM (inactive). Also, the GI50 in the test on HL-60 was > 100 µM (inactive); with RPMI-8226 it was > 100 µM (inactive); in the test on MCF7 it was > 64.6 µM (inactive); in the test on UO-31 it was > 100 µM (inactive); in the test on UACC-62 it was > 50 µM (inactive); in the test with BT-549, 27.2 µM (inactive). In addition, the GI50 with Hs-578T is 8.39 µM (inactive); in the test on MDA-MB-231 it was 35.8 µM (inactive).
